Source: patent US20240398845A1, “USE OF SGLT-2 INHIBITORS FOR THE PREVENTION AND/OR TREATMENT OF CARDIAC DISEASES IN NON-HUMAN MAMMALS EXCLUDING FELINES, IN PARTICULAR CANINES” (BOEHRINGER INGELHEIM VETMEDICA GMBH, priority 2021, published 2024)

Tested on: Beagle dogs with asymptomatic/preclinical ACVIM stage B2 MMVD
Test: Exploratory laboratory study in dogs with asymptomatic/preclinical myxomatous mitral valve disease (MMVD)
Format: in vivo, dog
Excerpt: Echocardiographic findings in dogs with MMVD stage B2 include degenerative valvular changes, increased left atrial dimension (LA/AO-ratio≥1.6), and increased left ventricular end-diastolic dimensions normalized to body weight (LVIDDN≥1.7) (Keene et al., 2019). For evaluation of survival time a severity score (MINE score) based on the echocardiographic variables above, the cardiac contractility (fractional shortening, FS %), and transmitral peak E-wave velocity was initiated (Vezzosi T et al., J Vet Intern Med. 2021, 35(3):1238-1244). The MINE score is associate with the survival time and provides therefore prognostic information.
The objective of this study was to evaluate velagliflozin, a sodium-glucose co-transporter-2 inhibitor, as a treatment for dogs with asymptomatic/preclinical ACVIM stage B2 MMVD. Three Beagle dogs previously diagnosed with this condition by a veterinary cardiologist were included in the study.
Baseline assessments included body weight measurements, veterinary examinations, echocardiographs, urinalysis, blood collections for hematology, biochemistry, BHB, NT-proBNP, cTnI, and erythropoietin analysis as well as radiographs to assess heart size, pulmonary edema, and congestion. On study Day 0, once daily oral administration of velagliflozin (0.05 mg/kg bodyweight) was initiated. Veterinary examinations, urinalysis, and blood collections for analysis of the above-mentioned parameters were repeated on Days 32, 59, and 91. Echocardiographs were repeated on Days 23, 58, and 93. General health observations are conducted twice daily, and body weights measured approximately every 3 weeks.
Additionally, the “The Mitral Insufficiency Echocardiographic” score, a severity classification of myxomatous mitral valve disease (MMVD) in dogs (MINE score) was calculated (Vezzosi et al., 2021). This score as an easy-to-use echocardiographic classification of severity of MMVD based on routinely acquired echocardiographic variables. The hypothesis was that the MINE score is clinically effective since it is associated with median survival time of the animals (see tables 5 and 6 below).

[1] = Azul, Day 58, velagliflozin 0.05 mg/kg bodyweight oral once daily

Which results are given for `N#Cc1ccc([C@@H]2O[C@H](CO)[C@@H](O)[C@H](O)[C@H]2O)cc1Cc1ccc(C2CC2)cc1` [velagliflozin, Velagliflozin]?
MINE severity classification (Azul, D93, moderate at baseline): severe; LVIDDN reduction from baseline [1]: 3.56%; decrease from baseline in LA/Ao ratio [1]: 17.3%; NT-proBNP reduction from baseline (Azul, Day 59, within the reference range): 76.3%; NT-proBNP reduction from baseline (Azul, Day 91): 45.8%; Total MINE score (Azul, Day 93, base line 7 (Moderate), increase due to increase in FS %, might be due to cystitis): 8 (Increase due to increase in FS %, also showed an; LVIDDN change versus baseline (Azul, Day 93, just above baseline): +0.81%; LA/Ao ratio below baseline (Azul, Day 93, velagliflozin 0.05 mg/kg bodyweight oral once daily): 1.08%; adverse event in one animal (Azul, during treatment, recovered): developed a cystitis; LVIDDN (in words) (Azul, summary): no change; LA/AO-ratio (in words) (Azul, summary at D93): no change; LVIDDN (in words) (Birdie and Shelby, summary, within day-to-day variability): slight decrease (improvement); LVIDDN reduction from baseline (Birdie, Day 93): 5.25%; MINE severity classification (Birdie, Day 93, Mild at base line): Mild (4-5); Total MINE score (Birdie, Day 93, base line 5 (Mild)): 5; reduction from baseline in LA/Ao ratio (Birdie, Day 93, velagliflozin 0.05 mg/kg bodyweight oral once daily): 12.73%; left atrial size (in words) (Birdie, summary, beyond day-to-day variability): normalization of the left atrial size; NT-proBNP reduction from baseline (Shelby, Day 91, still above the reference range): 45.6%; LVIDDN reduction from baseline (Shelby, Day 93): 3.54%; MINE severity classification (Shelby, Day 93, Moderate at base line): Moderate (6-7); Total MINE score (Shelby, Day 93, base line 7 (Moderate), decrease due to improvement in left ventricular diameter): 6; LA/AO-ratio (in words) (Shelby, summary, within day-to-day variability): slight increase (worsening); reduction in LA/Ao ratio from baseline (Shelby, velagliflozin 0.05 mg/kg bodyweight oral once daily): had not shown a reduction; survival at the time of the interim analysis (all three dogs, D94): still alive; blood glucose, renal function, or serum electrolytes (any time in any animal): no changes; observations following dosing (attributed to oral administration of a liquid product): Lip smacking/licking, head shaking, grimacing, and salivating; most frequent abnormal observation following initiation of treatment (group housed dogs, relationship to test product unknown, one instance also at baseline): vomit found within the housing pen; changes in cTnI (three Beagle dogs, velagliflozin 0.05 mg/kg bodyweight oral once daily): do not appear to be showing a clinically significant trend; hematology, biochemistry, or erythropoietin parameters (three Beagle dogs, velagliflozin 0.05 mg/kg bodyweight oral once daily, Days 32, 59, 91): No clinically significant changes; glucosuria (three dogs, pharmacodynamic effectiveness): noted in all three dogs; development of congestive heart failure (CHF) (three dogs, until D94, velagliflozin 0.05 mg/kg bodyweight once daily only): None of the study dogs developed congestive heart failure; overall disease state (three dogs, until interim analysis at D94): stable disease states with signs of improvement
